# From paper PMC6858373 (Scientific Reports, 2019)
# Where a name gives a salt, the structure may show the parent alone. Read-outs that look alike come from different tables or passages of the source.
# Columns and labels:
# [1] = target: full-length P. pyralis luciferase (Photinus pyralis, UniProt P08659, K549A/L550V/N119G/N50D/S548I); assay type: cell-based; details: CC_NCI screening; normalized to on-plate 0.3% DMSO controls
# [2] = in vitro; details: human
# [3] = target: T1, FGF14:Nav1.6 C-tail complex (Homo sapiens, UniProt Q92915+Q9UQD0); assay: Split-luciferase complementation assay (LCA) in Clone V double stable HEK293 cells; assay type: cell-based; details: for Split Luciferase Assay Z-score Set 1 / Split Luciferase Assay Z-score Set 2: normalized to on-plate 0.3% DMSO controls
# T1 construct: polymerase chain reaction (PCR) amplification of the FGF14 open reading frame (nt 1–855); C-terminal fragment of Nav1.6 (amino acids 1763–1976) fused with CD4ΔC-tail (amino acids 1–395); expressed in transfected cells
# [4] = tested on: Clone V cells; details: human
# [5] = CC_NCI screening, biological replicate Set 1
# [6] = CC_NCI screening, biological replicate Set 1, normalized to on-plate 0.3% DMSO controls (n=16 per plate)
# [7] = CC_NCI screening, biological replicate Set 2
# [8] = CC_NCI screening, biological replicate Set 2, normalized to on-plate 0.3% DMSO controls (n=16 per plate)
# [9] = average of Set 1 and Set 2, normalized to 0.3% DMSO controls
# T1 sequence (Q92915 1-252 isoform Q92915-2): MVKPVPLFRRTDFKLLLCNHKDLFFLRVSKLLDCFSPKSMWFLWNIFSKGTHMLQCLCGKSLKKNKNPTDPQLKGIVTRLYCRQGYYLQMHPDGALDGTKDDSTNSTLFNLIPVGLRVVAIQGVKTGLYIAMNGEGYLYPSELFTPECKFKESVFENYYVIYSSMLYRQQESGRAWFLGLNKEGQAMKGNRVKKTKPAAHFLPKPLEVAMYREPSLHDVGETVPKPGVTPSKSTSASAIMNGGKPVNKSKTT
# T1 sequence (Q9UQD0 1763-1976 limits assumed): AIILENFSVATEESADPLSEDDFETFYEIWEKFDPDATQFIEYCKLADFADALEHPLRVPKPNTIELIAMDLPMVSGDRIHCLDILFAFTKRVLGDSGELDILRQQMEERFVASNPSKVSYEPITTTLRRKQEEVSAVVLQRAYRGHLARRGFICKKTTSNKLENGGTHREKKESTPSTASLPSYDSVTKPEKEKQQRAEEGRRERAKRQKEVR
# Chain of full-length P. pyralis luciferase (P08659 whole entry N50D/N119G/S548I/K549A/L550V, looked up): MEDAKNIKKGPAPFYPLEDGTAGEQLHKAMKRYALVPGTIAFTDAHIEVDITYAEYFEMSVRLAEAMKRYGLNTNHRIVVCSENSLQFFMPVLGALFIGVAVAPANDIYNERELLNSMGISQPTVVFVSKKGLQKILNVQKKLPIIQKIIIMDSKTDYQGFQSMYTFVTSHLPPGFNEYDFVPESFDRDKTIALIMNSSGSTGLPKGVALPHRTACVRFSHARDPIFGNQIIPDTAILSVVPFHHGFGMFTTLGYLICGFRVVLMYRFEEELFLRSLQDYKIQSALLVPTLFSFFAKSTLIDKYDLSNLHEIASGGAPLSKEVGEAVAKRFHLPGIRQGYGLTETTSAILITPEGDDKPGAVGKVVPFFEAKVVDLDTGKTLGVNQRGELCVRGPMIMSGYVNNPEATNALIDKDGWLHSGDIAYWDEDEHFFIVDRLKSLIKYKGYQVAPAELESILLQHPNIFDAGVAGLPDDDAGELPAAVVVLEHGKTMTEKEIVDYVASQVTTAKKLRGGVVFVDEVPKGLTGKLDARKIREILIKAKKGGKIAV
compound,measurement,setting,value
Cc1c[nH]c(-c2cnc(NCCNc3ccc(C#N)cn3)nc2-c2ccc(Cl)cc2Cl)n1 [CHIR 99021],Luciferase Assay % Lum (full-length luciferase counter-screen),[1],70.15%
same,Luciferase Assay Z-score (full-length luciferase counter-screen),[1],-3.82
same,"viability at 16 h, 30 µM",[2],108%
same,Split Luciferase Assay Z-score Set 1,[3]; [5],-4.98
same,Split Luciferase Assay % Lum Set 1,[3]; [6],38.37%
same,Split Luciferase Assay Z-score Set 2,[3]; [7],-5.60
same,Split Luciferase Assay %Lum Set 2,[3]; [8],31.21%
same,Split Luciferase Assay %Lum Avg,[3]; [9],34.79%
same,Toxicity Assay Z-score (CTB cell viability),"[4]; 16 h, 30 µM",1.07
CCCCCOC(=O)Nc1nc(=O)n([C@@H]2O[C@H](C)[C@@H](O)[C@H]2O)cc1F [Capecitabine],Luciferase Assay % Lum (full-length luciferase counter-screen),[1],100.06%
same,Luciferase Assay Z-score (full-length luciferase counter-screen),[1],0.01
same,"viability at 16 h, 30 µM",[2]; Clone V cells,107%
same,Split Luciferase Assay Z-score Set 1,[3]; [5],1.96
same,Split Luciferase Assay % Lum Set 1,[3]; [6],124.26%
same,Split Luciferase Assay Z-score Set 2,[3]; [7],1.17
same,Split Luciferase Assay %Lum Set 2,[3]; [8],114.43%
same,Split Luciferase Assay %Lum Avg,[3]; [9],119.35%
same,Toxicity Assay Z-score (CTB cell viability),"[4]; 16 h, 30 µM",1.00
CC(C)C[C@H](NC(=O)[C@H](CCc1ccccc1)NC(=O)CN1CCOCC1)C(=O)N[C@@H](Cc1ccccc1)C(=O)N[C@@H](CC(C)C)C(=O)[C@@]1(C)CO1 [Carfilzomib],Luciferase Assay % Lum (full-length luciferase counter-screen),[1],97.18%
same,Luciferase Assay Z-score (full-length luciferase counter-screen),[1],-0.36
same,viability,[2],108%
same,Split Luciferase Assay Z-score Set 1,[3]; [5],-0.68
same,Split Luciferase Assay % Lum Set 1,[3]; [6],91.64%
same,Split Luciferase Assay Z-score Set 2,[3]; [7],-1.62
same,Split Luciferase Assay %Lum Set 2,[3]; [8],80.10%
same,Split Luciferase Assay %Lum Avg,[3]; [9],85.87%
same,Toxicity Assay Z-score (CTB cell viability),[4],1.05
O=NN(CCCl)C(=O)NCCCl [Carmustine],Luciferase Assay % Lum (full-length luciferase counter-screen),[1],102.90%
same,Luciferase Assay Z-score (full-length luciferase counter-screen),[1],0.37
same,viability,[2],117%
same,Split Luciferase Assay % Lum Set 1,[3],106.86%
same,Split Luciferase Assay %Lum Avg,[3],104.93%
same,Split Luciferase Assay %Lum Set 2,[3],102.99%
same,Split Luciferase Assay Z-score Set 1,[3]; [5],0.55
same,Split Luciferase Assay Z-score Set 2,[3]; [7],0.24
same,Toxicity Assay Z-score (CTB cell viability),[4],2.39
"O=C(O)CCCc1ccc(N(CCCl)CCCl)cc1 [Chlorambucil, reference compound]",Luciferase Assay % Lum (full-length luciferase counter-screen),[1],97.90%
same,Luciferase Assay Z-score (full-length luciferase counter-screen),[1],-0.27
same,viability,[2],105%
same,Z-score (LCA primary screening),"[3]; 30 µM, 384-well, average of primary screening (n = 2), vs on-plate 0.3% DMSO",12.39
same,Split Luciferase Assay Z-score Set 1,[3]; [5],13.12
same,Split Luciferase Assay % Lum Set 1,[3]; [6],262.32%
same,Split Luciferase Assay Z-score Set 2,[3]; [7],11.67
same,Split Luciferase Assay %Lum Set 2,[3]; [8],243.43%
same,EMax (% Luminescence),"[3]; agonists, Clone V cells, 384-well, normalized to DMSO",252.88 % Luminescence
same,Split Luciferase Assay %Lum Avg,[3]; [9],252.88%
same,EC50,"[3]; estimated, 8-point dose response 0.25-30 µM, n = 4 per concentration, library compounds, read-out: EC50",16.4 µM
same,Toxicity Assay Z-score (CTB cell viability),[4],0.71
Nc1ccn([C@@H]2O[C@H](CO)[C@@H](O)[C@@H]2O)c(=O)n1 [Cytarabine hydrochloride],Luciferase Assay % Lum (full-length luciferase counter-screen),[1],93.77%
same,Luciferase Assay Z-score (full-length luciferase counter-screen),[1],-0.80
same,"viability at 16 h, 30 µM",[2],108%
same,Split Luciferase Assay Z-score Set 1,[3]; [5],-0.50
same,Split Luciferase Assay % Lum Set 1,[3]; [6],93.82%
same,Split Luciferase Assay Z-score Set 2,[3]; [7],0.16
same,Split Luciferase Assay %Lum Set 2,[3]; [8],101.95%
same,Split Luciferase Assay %Lum Avg,[3]; [9],97.88%
same,Toxicity Assay Z-score (CTB cell viability),"[4]; 16 h, 30 µM",1.12
